Here are results for 15 compounds from ChEMBL document CHEMBL4004870, “Synthesis of dihydroimidazole tethered imidazolinethiones and their activity as novel antagonists of the nuclear retinoic acid receptor-related orphan receptors (RORs)” (Bioorg Med Chem Lett, 2017).

For orientation: IC50 means the concentration at which inhibition is half-maximal. The low end stands for inhibition by little substance, the high end for a need for much substance.

Experiment [1] addresses T1, Nuclear receptor ROR-beta (Rattus norvegicus, UniProt P45446).
T1 sequence (P45446 whole entry): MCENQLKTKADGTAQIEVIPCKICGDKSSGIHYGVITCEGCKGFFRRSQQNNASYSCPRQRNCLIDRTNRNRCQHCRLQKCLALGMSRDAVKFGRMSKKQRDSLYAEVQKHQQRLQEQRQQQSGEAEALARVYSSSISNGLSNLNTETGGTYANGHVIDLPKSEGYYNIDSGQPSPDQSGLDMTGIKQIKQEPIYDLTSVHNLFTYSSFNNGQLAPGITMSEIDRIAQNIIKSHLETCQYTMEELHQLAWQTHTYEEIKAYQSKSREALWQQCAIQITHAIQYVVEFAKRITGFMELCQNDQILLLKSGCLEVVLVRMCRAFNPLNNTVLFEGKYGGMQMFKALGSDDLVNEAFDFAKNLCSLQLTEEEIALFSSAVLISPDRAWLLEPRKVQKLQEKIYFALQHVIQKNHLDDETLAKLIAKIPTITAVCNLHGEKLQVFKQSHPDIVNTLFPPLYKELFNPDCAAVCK
In words: Antagonist activity at rat Gal4-fused DBD RORbeta LBD (Pro-205-end) expressed in TRex-CHOK1 cells after 20 hrs by luciferase reporter gene assay. The class given is cell-based.

For experiment [2], the target named is T2, Nuclear receptor ROR-gamma (Mus musculus, UniProt P51450).
T2 sequence (P51450 whole entry): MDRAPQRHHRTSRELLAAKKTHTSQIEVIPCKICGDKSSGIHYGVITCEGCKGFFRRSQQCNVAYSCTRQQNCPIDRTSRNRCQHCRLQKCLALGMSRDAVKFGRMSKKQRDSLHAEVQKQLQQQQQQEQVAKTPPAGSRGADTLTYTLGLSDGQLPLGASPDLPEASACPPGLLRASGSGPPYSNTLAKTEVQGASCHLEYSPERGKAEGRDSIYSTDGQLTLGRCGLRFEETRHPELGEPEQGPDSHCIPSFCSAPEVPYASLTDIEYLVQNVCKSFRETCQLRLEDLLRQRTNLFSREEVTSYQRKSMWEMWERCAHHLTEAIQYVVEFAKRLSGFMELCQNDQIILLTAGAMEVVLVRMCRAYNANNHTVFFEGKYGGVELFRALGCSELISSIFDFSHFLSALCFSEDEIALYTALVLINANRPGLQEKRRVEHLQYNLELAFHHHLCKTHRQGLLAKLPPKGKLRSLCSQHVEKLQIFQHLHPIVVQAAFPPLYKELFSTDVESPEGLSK
In words: Antagonist activity at mouse Gal4-fused DBD RORgamma LBD (Pro-261-end) expressed in TRex-CHOK1 cells after 20 hrs by luciferase reporter gene assay. The class given is cell-based. Background: In a reporter assay the amount or activity of a reporter protein is the signal.

On to `Fc1cccc(CC2=N[C@@H](CCCCN3C[C@H](Cc4ccccc4)N(CCc4ccccc4)C3=S)CN2)c1`, for which the IC50 in experiment [1] was 12.4 µM; in experiment [2], 6.6 µM.
Taken in the same sequence, the figures for `CCCC1=N[C@@H](CCCCN2C[C@H](Cc3ccccc3)N(CCC3CC4CCC3C4)C2=S)CN1` (stereo not given in full) were 17 µM and 9.3 µM.
In the case of `CCCC1=N[C@@H](CCCCN2C[C@@H](C(C)(C)C)N(CCc3ccccc3)C2=S)CN1`, the 50% inhibitory concentration (IC50) in experiment [1] was 22.3 µM; in experiment [2] it was 11.8 µM.
The like results for `S=C1N(CCCC[C@H]2CNC(CCC3CCCC3)=N2)C[C@H](Cc2ccccc2)N1CCc1ccccc1` were, in that order, 9.1 µM and 5.6 µM.
Regarding `COc1cccc(CC2=N[C@@H](CCCCN3C[C@H](Cc4ccccc4)N(CCc4ccccc4)C3=S)CN2)c1`, the IC50 came to 8.4 µM in experiment [1] and 6.3 µM in experiment [2].
`C=CCC1=N[C@@H](CCCCN2C[C@H](Cc3ccccc3)N(CCc3ccccc3)C2=S)CN1`: the IC50 in experiment [1] came out at 14.3 µM; in experiment [2], 10.2 µM.
Taken in the same sequence, the figures for `CC(CC1=N[C@@H](CCCCN2C[C@H](Cc3ccccc3)N(CCc3ccccc3)C2=S)CN1)c1ccccc1` (stereo not given in full) were 10.9 µM and 6.5 µM.
As to `CCCC1=N[C@@H](CCCCN2C[C@H](Cc3ccccc3)N(CCC3C4CC5CC(C4)CC3C5)C2=S)CN1` (stereo not given in full), the figures for the IC50 in experiment [1] and in experiment [2] were 10.7 µM and 7.9 µM, respectively.
As for `C/C=C/C1=N[C@@H](CCCCN2C[C@H](Cc3ccccc3)N(CCc3ccccc3)C2=S)CN1`, the IC50 is 12.5 µM in experiment [1] and 5.8 µM in experiment [2].
With `Fc1ccc(CC2=N[C@@H](CCCCN3C[C@H](Cc4ccccc4)N(CCc4ccccc4)C3=S)CN2)cc1`, the values for the IC50 in experiment [1] and in experiment [2] were 12.4 µM and 7.7 µM, respectively.
On to `Cc1cccc(CC2=N[C@@H](CCCCN3C[C@H](Cc4ccccc4)N(CCc4ccccc4)C3=S)CN2)c1`, for which the IC50 in experiment [1] is 9 µM; in experiment [2] it was 6.3 µM.
In the case of `CCCC[C@H]1CN(CCCC[C@H]2CNC(CCC)=N2)C(=S)N1CCc1ccccc1`, the IC50 in experiment [1] was determined as 17.5 µM; in experiment [2], 10.2 µM.
Regarding `CCCC1=N[C@@H](CCCCN2C[C@H](Cc3ccccc3)N(CC3CCC(C)CC3)C2=S)CN1` (stereo not given in full), the values for the IC50 in experiment [1] and in experiment [2] were 21.1 µM and 13.7 µM, respectively.
As to `S=C1N(CCCC[C@H]2CNC(CC3CCCCC3)=N2)C[C@H](Cc2ccccc2)N1CCc1ccccc1`, the IC50 in experiment [1] was 8.3 µM; in experiment [2] it was 5.1 µM.
Taken in the same sequence, the figures for `CCCC1=N[C@@H](CCCCN2C[C@H](Cc3ccccc3)N(CCCC3CCCC3)C2=S)CN1` were 10.2 µM and 6.4 µM.
